This experiment addresses Autotaxin (Homo sapiens, UniProt Q13822). In words: Inhibition of human recombinant ATX lysophospholipase activity expressed in insect sf9 cells using FS-3 fluorogenic substrate preincubated for 10 mins measured after 5 and 25 mins by fluorometric analysis.

A word on the Ki: it is the dissociation constant of the complex between target and ligand, obtained from inhibition or displacement. Consider `CCCCCCCCCCCCCC(=O)Nc1ccc(C(O)P(=O)(O)O)cc1` (configuration not stated), for which the Ki came out at 24 nM.

In the case of `CCCCCCCCCC(=O)Nc1ccc(C(O)P(=O)(O)O)cc1` (configuration not stated), the Ki amounted to 24 nM.

These data come from BindingDB's records for doi:10.1016/j.bmcl.2011.03.068 (The University of Utah, 2011).
